Measured values published in patent US5728684A, “Determination of prodrugs metabolizable by the liver and therapeutic use thereof” (priority 1994, dated 1998).

Assays:
[1] = tested on: aldehyde oxidase; assay: Substrate specificity of the conversion of RPdR to RUdR; format: in vitro ADME, rat; conditions: substrate 180 μM; 2 to 4 separate experiments; in nmol/mg/min
Method: Rat hepatic tissue was washed with ice-cold 1.15% KCl and blotted dry. The tissue was then homogenized with a tissue homogenizer, in a volume of 1.15% KCl that was 3 times the tissue weight, to form a 25% (w/v) homogenate. The homogenate was then centrifuged at 10,000 g for 10 minutes at 4° C. The resulting supernatant was filtered through Miracloth (similar to cheese cloth) then dialyzed overnight against 50 mM Tris-HCl buffer pH 7.5 and stored at -80° C. before use. Rat hepatocytes were obtained by a perfusion technique then the cells were extracted with 10 mM phosphate buffer, pH 7.5, containing 1M KCl and dialyzed for 4 hours against 50 mM Tris-HCl buffer pH 7.5.
For the standard assay condition, the reaction mixture contained 50 mM Tris-HCl, pH 7.5, 1 mM EDTA, 180 μM of IPdR (or its analogs) and approximately 0.01 mg protein of 10,000 g supernatant of tissue homogenate in a final volume of 500 μl and the incubation was at 37° C. for 10 minutes unless specified otherwise. 300 μl of reaction mixture was removed at the end of incubation and mixed with 630 μl acetonitrile then agitated. The precipitated protein were removed by centrifugation and the supernatant was lyophilized to dryness. The samples were reconstituted to the original aliquot volume with the HPLC mobile phase buffer and analyzed on a Alltech RP-18 column. IPdR, IUdR and IU were detected at a UV absorption wavelength of 230 nm, and IPdR was also detected at a UV absorption wavelength of 335 nm. The mobile phase was 10% acetonitrile/90%mM ammonium acetate, pH 6.8 and the flow rate was 1 ml/minute. Standard curves of IPdR and IUdR were established from the integration value of known concentrations.
Several 2-pyrimidinone deoxyribose analogs were examined for the conversion to their deoxyuridine counterparts. […] Nevertheless the relative Vmax for IPdR in the reaction at pH 7.5 and pH 9.5 is the same. […] The synthetic substrates for aldehyde oxidase appear to be better than its natural substrates, N^1 -methylnicotinamide and acetaldehyde, as judged by the potency of inhibition of N^1 -methylnicotinamide and acetaldehyde to the IPdR oxidation reaction (Table IV). The rate of reactivity of the liver enzyme with different IPdR analogs follows the order EPdR, IP, IPdR, 5-bromo-2-pyrimidinone deoxyribose (BPdR) and 5-methyl-2-pyrimidinone deoxyribose (MPdR) or 5-ethyl-2-pyrimidinone deoxyribose (EtPdR) (Table V). Electronegative substituents in the 5-position seemed to increase the substrate activity in this oxidation reaction.
Substrate specificity of the conversion of […]

[2] = tested on: uninfected cells; conditions: Lewandowski et al. 1989; cited from earlier work

## O=c1ncc(I)cn1[C@H]1C[C@H](O)[C@@H](CO)O1 [IPdR, 1-(2-deoxy-β-D-ribofuranosyl)-5-(iodo)-2-pyrimidinone]
[1]
  Conversion of RPdR to RUdR: 11 ± 2
[2]
  toxicity to uninfected cells: not toxic
